Experimental data from US5036072A, “Antiviral agent” (Ishihara Sangyo Kaisha Ltd., priority 1989, dated 1991).

Columns and labels:
[1] = system: reverse transcriptase derived from bird's myeloblastosis virus; experiment: inhibition of the reverse transcriptase activities; type: biochemical; conditions: 37° C. for 60 minutes, [3H]-TTP incorporation
Description: Now, the effects of the antiviral agent of the present invention for inhibition of the reverse transcriptase activities will be shown.
The test solution comprised magnesium chloride (5 mM), DTT (5 mM), sodium chloride (60 mM), [^3 H]-TTP (0.2 mM), poly(λA) (10 μg/ml), Oligo (dT) (0.04 U/ml), reverse transcriptase derived from bird's myeloblastosis virus (3 U/ml) and Tris hydrochloric acid (pH 8.0). Compound 3 was dissolved in cyclodextrin to obtain a solution having a concentration of 5 mg/ml, which was then diluted with water to a predetermined concentration for use.
Then, 50 μl of the test solution and 50 μl of the sample solution were mixed, and the mixture was incubated at 37° C. for 60 minutes. Then, 50 μl of the incubated solution was sampled and soaked into a DEA filter paper. Then, this filter paper was washed with a 5% sodium monohydrogen phosphate solution and then with water and ethanol, followed by drying. The radioactivity contained in the captured fraction was measured by means of a scintillation counter. Then, the inhibition rate (%) of the sample Compound 3 was calculated from the radioactivity of the test sample group and that of the control group.

[2] = system: helpes simplex virus (1-type, KOS strain); experiment: plaque-reduction evaluation method in Verocells; type: cell-based; conditions: drug added one hour after infection, counted three days later
Description: The antiviral activities were evaluated by a plaque-reduction evaluation method. Verocells were inoculated to a plastic Petri dish and then proliferated until they formed a monolayer. To each Petri dish, a predetermined number of plaque-forming units (about 100 to 500) of helpes simplex virus (1-type, KOS strain) were infected. Compound 3 was dissolved in 2% of bovine fetus serum inactivated by heating and adjusted to a predetermined concentration. One hour after the infection, the drug solution was added to the cultivation Petri dish (8 ml/Petri dish). Three days later, the cultivation Petri dish was fixed by formalin and dyed with Crystal Violet, whereupon the number of plaques was counted.

O=C(NC(=O)c1ccccc1[N+](=O)[O-])Nc1ccc(Oc2ncc(Br)cn2)c(Cl)c1 [Compound 3]
Inhibition rate (%) ([1]; 1.25 μg/ml): 6%
Inhibition rate (%) ([1]; 2.5 μg/ml): 11%
Inhibition rate (%) ([1]; 5 μg/ml): 34%
Inhibition rate (%) ([1]; 10 μg/ml): 57%
Number of plaques ([2]; 1 μg/ml): 264.5
inhibition at 1 µg/mL ([2]; 1 μg/ml): 45.1%
Number of plaques ([2]; 2.5 μg/ml): 122.0
inhibition at 2.5 µg/mL ([2]; 2.5 μg/ml): 74.7%
Number of plaques ([2]; 5 μg/ml): 27.5
inhibition at 5 µg/mL ([2]; 5 μg/ml): 94.3%
